Data as given in patent US20110160121A1, “UNACYLATED GHRELIN AND ANALOGS AS THERAPEUTIC AGENTS FOR VASCULAR REMODELING IN DIABETIC PATIENTS AND TREATMENT OF CARDIOVASCULAR DISEASE” (ALIZE PHARMA SAS, priority 2008, published 2011).
Several values for one entry are separate records, joined by “and”; a condition that tells them apart may be missing. Equal values may be shown once. One block for each molecule: values may come before it. *1 amine or outer side, *2 acyl side, *3 side chain or, on linkers, in order; H or OH if unused. Where no end group is shown, it is not given here. [ ]: non-standard residue; d: D form. The star is where a group is joined. 125I‑Tyr = O=C([C@H](Cc1ccc(O[*:3])c([125I])c1)N[*:1])[*:2]; Octanoyl = CCCCCCCC(=O)*; 125I = [125I]*

How the values were obtained:
[1] = system: human umbilical vein endothelial cells (HUVECs); conditions: Ref. 5; cited from earlier work
CAC [2] = assay: Expansion (S phase) of CAC recovered from treated patients, cultured with IL-3; assay type: in vivo, human; conditions: cells recovered from treated diabetic patients; FIG. 3C
Method: To confirm their vascular features, the cells recovered from patients and controls were cultured with IL-3; which is able to induce expansion and arterial morphogenesis of CD45^+ cells derived from both peripheral blood and BM (Ref. 28).
Flow Cytometry—To analyze CAC cell-cycle progression, cells recovered from diabetic, healthy subjects, NOD/SCID, ob/ob and wt mice, were cultured in EBM-2 supplemented with IL-3 (10 ng/ml), FACS analysis was performed as previously described (Ref. 20). Cell surface molecules were evaluated by flow cytometry as previously described (Ref. 24). Frequency of marker-positive cells is expressed as mean±standard deviation (SD).

human arteries = conditions: Ref. 35; cited from earlier work
CAC [3] = assay: CAC mobilization assay in healthy subjects and diabetic patients; assay type: in vivo, human; conditions: diabetic patients compared to normal subjects, treated for 6 hours; FIG. 3B
Method: This observation led to investigate the effect of UAG treatment on BM CAC mobilization. To this end, normal subject and diabetic patients were treated with UAG or saline for 6 hours. After treatment, CAC were recovered from 4 control subjects and 4 diabetic patients, analyzed by FACS analysis and counted. […] Black lines refer to preimmune IgG used as negative control and grey lines refer to surface marker expression. Similar results were obtained when CAC from untreated diabetic patients or untreated or treated healthy subjects were analyzed (data not shown).
All the subjects underwent the following testing session: • UAG (3.0 μg/kg/h iv. as infusion for 12 h from 0 to 12 hours); • isotonic saline (infusion from 0 to 12 hours).
Mobilization assay—CAC recovered from healthy subjects and diabetic patients, treated with UAG or saline for 6 h and 12 h, were evaluated. Total number of MNC was counted by 3 independent investigators. The percentage of CAC was calculated by comparing CAC obtained from diabetic patients and healthy donors, treated for 6 h and 12 h with UAG, AG or saline, to CAC recovered at time 0.

CAC [4] = assay: Detection of ROS in CAC (DCF-DA assay, FACS); assay type: cell-based, human; conditions: for level of ROS production in AGE-cultured cells: AGE-cultured CAC, FIG. 1C, 1F; for baseline level of ROS production: CAC, compared to untreated cells, FIG. 1B, 1E
Method: First, cell-cycle progression in response to UAG and AG was evaluated. […] To investigate whether this effect relies on inhibition of baseline ROS production, DCF-DA assay was performed. […] H2O2 was used as positive control. AGE-mediated damage signals mainly rely on ROS production (Ref. 29). […] Detection of ROS—DCF-DA (0.5 μM final concentration) was added to CAC in the indicated culture conditions. At the indicated times, the cells were subjected to FACS analysis and processed as previously described (Ref. 22). H2O2 was used as positive control.

[5] = system: human microvascular endothelial cells (HMVECs); conditions: exogenous AG, Ref. 4; cited from earlier work
CAC [6] = assay: CAC cell-cycle progression (percentage of cells in S phase, FACS); assay type: cell-based, human; conditions: cultured CAC; effect still evident after 7 days of culture; FIG. 1A
Method: First, cell-cycle progression in response to UAG and AG was evaluated. […] To investigate whether this effect relies on inhibition of baseline ROS production, DCF-DA assay was performed. […] H2O2 was used as positive control. AGE-mediated damage signals mainly rely on ROS production (Ref. 29). […] Isolation and Culture of CAC from Peripheral Blood Mononuclear Cells—Peripheral-blood mononuclear cells (PB-MNC) isolated by Fycoll Histopaque 1077 (Sigma) were resuspended in 20% FBS 199 Medium and plated on fibronectin-coated dishes (Biocoat, Becton Dickinson Labware) as described by Hill et al. (Ref. 19). Human UAG studies were performed on CAC recovered from normal donors and diabetic patients. The purity of sorted cells was assessed by FACS analysis (Ref. 20). For experiments, the isolated CAC were cultured under 5% CO2 at 37° C. for 4 days on 20 μg/ml fibronectin-coated dishes in EGM-2 medium containing 10% FBS, hydrocortisone, human Fibroblast Growth Factor, Vascular Endothelial Growth Factor, Insulin Growth Factor 1, ascorbic acid, human Epidermal Growth Factor, gentamicin and amphotericin-B (Cambrex, Walkersville, Md., USA) alone or in combination with 1 μM UAG and 1.2 mg/ml AGE. […] Cell surface molecules were evaluated by flow cytometry as previously described (Ref. 24). Frequency of marker-positive cells is expressed as mean±standard deviation (SD).

cardiomyocytes = conditions: Ref. 8; cited from earlier work
CAC membranes = assay: Competition binding with [125I-Tyr4]-UAG on CAC membranes; set-up: species or system human
From the text: The specific binding of [^125I-Tyr^4]-UAG (calculated as difference between binding in the absence, control, and in the presence of UAG) represented about 75% of the control value (P<0.001) and was detected either on fresh (0.25 and 0.26 fmol) or frozen-thawed (0.20 and 0.33 fmol) CAC membranes from two different cell preparations.

[7] = target: specific binding sites for UAG on CAC membranes; assay: radioligand binding to CAC membranes; difference between binding without and with 100 nM unlabelled UAG
[8] = target: specific binding sites for UAG on CAC membranes; assay: saturation binding on CAC membranes
[9] = target: specific binding sites for UAG on CAC membranes; assay: radioligand binding, frozen-thawed CAC membranes, two cell preparations
[10] = target: specific binding sites for UAG on CAC membranes; assay: radioligand binding, fresh CAC membranes, two cell preparations
[11] = target: specific binding sites for UAG on CAC membranes; assay: saturation binding on CAC membranes, Scatchard analysis

Molecule: AG: 28 amino acid peptide with an n-octanoyl modification on the Ser3 residue; endogenous ligand of GHSR (GSS(Octanoyl)FLSPEHQRVQQRKESKKPPAKLQPR) [reference compound]
- basal and TNF-alpha-induced chemotactic cytokine production and mononuclear cell adhesion [1]: inhibit basal and TNF-α-induced chemotactic cytokine production and mononuclear cell adhesion
- cell expansion (cells in S phase) with IL-3 (CAC [2]): not from AG-treated diabetic patients, underwent cell expansion
- vasodilator action (human arteries): have vasodilator actions in human arteries
- number of recovered cells (CAC) (CAC [3]): No statistical differences were detected
- level of ROS production in AGE-cultured cells (CAC [4]): no effects could be detected
- intracellular ROS production in diabetic-recovered cells (CAC [4]; CAC isolated from type 2 diabetic patients, treated in vitro, FIG. 1D): not AG, reduced intracellular ROS production
- baseline level of ROS production (CAC [4]): A protective effect failed to be detected
- cell proliferation, migration, in vitro angiogenesis and ERK2 phosphorylation [5]: significantly increased cell proliferation, migration, in vitro angiogenesis and ERK2 phosphorylation
- percentage of cells in S phase (CAC [6]): not AG, was able to induce a significant increase
- inhibition of experimentally-induced cell death (cardiomyocytes): inhibit experimentally-induced cell death

B1: [125I-Tyr4]-UAG (peptide)
peptide: GSSY(125I)LSPEHQRVQQRKESKKPPAKLQPR
modifications: ends and bridges not checked
- specific binding (% of control value) [7]: 75%
- concentration at maximum specific binding [8]: 2 nM
- specific binding [9]: 0.2 fmol and 0.33 fmol
- specific binding [10]: 0.25 fmol and 0.26 fmol
- Bmax (fmol/mg membrane protein) [11]: 10.7
- Kd [11]: 0.48 nM

More lines, main results first:

- inhibition of binding of [125I-Tyr4]-UAG to CAC membranes (CAC membranes; 100 nM competitor, 0.25 nM radioligand, FIG. 5A): inhibited
Molecule: Ser-Pro-Glu-His-Gln-Arg-Val-Gln (SPEHQRVQ; not fully specified (C-terminus); printed as Ser-Pro-Glu-His-Gln-Arg-Val-Gln; listed as Homo sapiens) [UAG (6-13)]
- level of ROS production in AGE-cultured cells (CAC [4]): the level of ROS production in AGE-cultured cells was reduced
- baseline level of ROS production (CAC [4]): reduces the baseline level of ROS production

- specific binding of [125I-Tyr4]-UAG (CAC membranes; difference between binding in the absence and in the presence of 100 nM UAG, P<0.001): about 75 % of the control value
- specific binding of [125I-Tyr4]-UAG (CAC membranes; fresh CAC membranes, two different cell preparations): 0.25 fmol and 0.26 fmol
- specific binding of [125I-Tyr4]-UAG (CAC membranes; frozen-thawed CAC membranes, two different cell preparations): 0.20 fmol and 0.33 fmol
Molecule: [^125I-Tyr^4]-UAG: radioligand used for binding to CAC membranes (GSS[125I‑Tyr]LSPEHQRVQQRKESKKPPAKLQPR)
